Reference: patent publication US8222202B2 (priority 2006, dated 2012)
Like-named read-outs stand apart in the source and are kept apart here. Positions of bridges follow the written chain, without caps; N, C: chain ends. Non-standard residues stand in square brackets, D forms with d. Residues, ends and D or L forms follow the SMILES beside them. *: point of attachment. Ala(4-thiazolyl) = N[C@@H](Cc1cscn1)C(=O)O; Ala(2-furyl) = N[C@@H](Cc1ccco1)C(=O)O; Orn(iPr) = CC(C)NCCC[C@H](N)C(=O)O; Dab(iPr) = CC(C)NCC[C@H](N)C(=O)O; 2Pal = N[C@@H](Cc1ccccn1)C(=O)O; 3Pal = N[C@@H](Cc1cccnc1)C(=O)O; 2Thi = N[C@@H](Cc1cccs1)C(=O)O; 3Thi = N[C@@H](Cc1ccsc1)C(=O)O; Aad = N[C@@H](CCCC(=O)O)C(=O)O; NHCH(CH2OH)2 = OCC(CO)N*; Orn = NCCC[C@H](N)C(=O)O; Dab = NCC[C@H](N)C(=O)O; X4 = OCCOCCN*; NHOH = ON*

Assays:
[1] = target: T1, hV1a receptor (Homo sapiens, UniProt P37288); assay: hV1a receptor transcriptional reporter (luciferase) agonist assay; assay type: cell-based
T1 construct: expressed in transfected cells; host or cells: HEK-293
T1 sequence (P37288 whole entry): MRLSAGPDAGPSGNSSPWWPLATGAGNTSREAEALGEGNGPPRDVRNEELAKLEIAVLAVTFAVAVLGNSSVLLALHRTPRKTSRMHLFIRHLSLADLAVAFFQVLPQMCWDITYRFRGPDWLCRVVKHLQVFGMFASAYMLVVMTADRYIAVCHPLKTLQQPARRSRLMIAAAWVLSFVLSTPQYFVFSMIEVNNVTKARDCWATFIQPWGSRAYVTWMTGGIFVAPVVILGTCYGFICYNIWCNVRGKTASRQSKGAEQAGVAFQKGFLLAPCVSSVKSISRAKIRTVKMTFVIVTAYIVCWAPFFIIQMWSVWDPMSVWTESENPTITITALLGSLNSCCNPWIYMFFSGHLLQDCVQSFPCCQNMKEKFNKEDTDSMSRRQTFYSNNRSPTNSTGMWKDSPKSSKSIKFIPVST
Method: (§1) Agonist activity of compounds on the hV1a receptor was determined in a transcriptional reporter assay by transiently transfecting a hV1a receptor expression DNA into HEK-293 cells in concert with a reporter DNA containing intracellular calcium responsive promoter elements regulating expression of firefly luciferase. See Boss, V., Talpade, D. J., Murphy, T. J. J. Biol. Chem. 1996, May 3; 271(18), 10429-10432 for further guidance on this assay. […] To determine selectivity, compounds were tested in luciferase-based transcriptional reporter assays expressing the human oxytocin (hOT) receptor. Assays for other receptors (hV2, hV1b, rat V1a and rat V2) were also conducted.
(§2) The EC50 value given is the geometric mean expressed in nanomol/L (nM). Selectivity values are given as EC50 ratios.

[2] = target: T2, human oxytocin (hOT) receptor (Homo sapiens, UniProt P30559); assay: luciferase-based transcriptional reporter assay, selectivity hOT versus hV1a; assay type: cell-based
T2 construct: expressed in transfected cells
T2 sequence (P30559 1-389): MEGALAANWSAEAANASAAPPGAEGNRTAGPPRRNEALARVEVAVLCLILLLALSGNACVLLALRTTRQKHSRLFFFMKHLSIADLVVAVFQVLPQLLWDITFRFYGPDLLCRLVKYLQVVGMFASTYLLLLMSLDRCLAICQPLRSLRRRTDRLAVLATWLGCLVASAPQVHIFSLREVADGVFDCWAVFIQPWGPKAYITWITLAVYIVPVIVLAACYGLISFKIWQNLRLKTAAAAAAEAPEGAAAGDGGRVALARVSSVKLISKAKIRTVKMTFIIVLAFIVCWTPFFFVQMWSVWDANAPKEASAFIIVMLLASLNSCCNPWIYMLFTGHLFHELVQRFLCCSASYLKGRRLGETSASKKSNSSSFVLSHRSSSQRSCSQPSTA
Method: as §1, §2

[3] = HEK-293 cells transiently transfected with hV1a receptor, 5 hours exposure, geometric mean, read-out: EC50 hV1a receptor
[4] = class symbol, agonist efficacy at hOT receptor compared to AVP

| EC50 [1, 3] | SMILES | selectivity hOT/hV1a [2, 4] | selectivity hOT/hV1a ([2]; EC50 ratio) | EC50 [1] | selectivity hOT/hV1a [2] |
| --- | --- | --- | --- | --- | --- |
| 7.45 nM | CC[C@H](C)[C@@H]1NC(=O)[C@H](Cc2ccsc2)NC(=O)[C@@H](N)CSSC[C@@H](C(=O)N2CCC[C@H]2C(=O)N[C@@H](CCN)C(=O)NCC(N)=O)NC(=O)[C@H](CC(N)=O)NC(=O)[C@H](CC(N)=O)NC1=O [Compound 37] (H-C[3Thi]INNCP[Dab]G-NH2; disulfide 1-6; N-terminus and C-terminus assumed) | + (selective hV1a receptor agonist; EC50 hOT/hV1a ratio not determined due to very low agonist efficacy (<30% compared to AVP) at the hOT receptor) |  |  |  |
| 16.2 nM | CC[C@H](C)[C@@H]1NC(=O)[C@H](Cc2ccccc2)NC(=O)[C@@H](N)CSSC[C@@H](C(=O)N2CCC[C@H]2C(=O)N[C@@H](CCCN)C(=O)NCC(N)=O)NC(=O)[C@H](CC(N)=O)NC(=O)[C@H](CC(=O)NC(CO)CO)NC1=O [Compound 27] (H-CFID(NHCH(CH2OH)2)NCP[Orn]G-NH2; disulfide 1-6; N-terminus and C-terminus assumed) | + (selective hV1a receptor agonist; EC50 hOT/hV1a ratio not determined due to very low agonist efficacy (<30% compared to AVP) at the hOT receptor) |  |  |  |
| 7.3 nM | CC[C@H](C)[C@@H]1NC(=O)[C@H](Cc2ccsc2)NC(=O)[C@@H](N)CSSC[C@@H](C(=O)N2CCC[C@H]2C(=O)N[C@@H](CCCN)C(=O)NCC(N)=O)NC(=O)[C@H](CC(N)=O)NC(=O)[C@H](CC(N)=O)NC1=O [Compound 35] (H-C[3Thi]INNCP[Orn]G-NH2; disulfide 1-6) | + (selective hV1a receptor agonist; EC50 hOT/hV1a ratio not determined due to very low agonist efficacy (<30% compared to AVP) at the hOT receptor) |  |  |  |
| 18.1 nM | CC[C@H](C)[C@@H]1NC(=O)[C@H](Cc2ccccc2)NC(=O)[C@@H](N)CSSC[C@@H](C(=O)N2CCC[C@H]2C(=O)N[C@@H](CCNC(C)C)C(=O)NCC(N)=O)NC(=O)[C@H](CC(N)=O)NC(=O)[C@H](CCCC(N)=O)NC1=O [Compound 22] (H-CFI[Aad](NH2)NCP[Dab(iPr)]G-NH2; disulfide 1-6; N-terminus and C-terminus assumed) | + (selective hV1a receptor agonist; EC50 hOT/hV1a ratio not determined due to very low agonist efficacy (<30% compared to AVP) at the hOT receptor) |  |  |  |
| 10.1 nM | CC[C@H](C)[C@@H]1NC(=O)[C@H](Cc2ccco2)NC(=O)[C@@H](N)CSSC[C@@H](C(=O)N2CCC[C@H]2C(=O)N[C@@H](CCCN)C(=O)NCC(N)=O)NC(=O)[C@H](CC(N)=O)NC(=O)[C@H](CC(N)=O)NC1=O [Compound 38] (H-C[Ala(2-furyl)]INNCP[Orn]G-NH2; disulfide 1-6; N-terminus and C-terminus assumed) | + (selective hV1a receptor agonist; EC50 hOT/hV1a ratio not determined due to very low agonist efficacy (<30% compared to AVP) at the hOT receptor) |  |  |  |
| 39.3 nM | CCNC(=O)CC[C@@H]1NC(=O)[C@H]([C@@H](C)CC)NC(=O)[C@H](Cc2ccccc2)NC(=O)[C@@H](N)CSSC[C@@H](C(=O)N2CCC[C@H]2C(=O)N[C@@H](CCCN)C(=O)NCC(N)=O)NC(=O)[C@H](CC(N)=O)NC1=O [Compound 20] (H-CFIE(NHEt)NCP[Orn]G-NH2; disulfide 1-6; N-terminus and C-terminus assumed) | + (selective hV1a receptor agonist; EC50 hOT/hV1a ratio not determined due to very low agonist efficacy (<30% compared to AVP) at the hOT receptor) |  |  |  |
| 14.6 nM | CC[C@H](C)[C@@H]1NC(=O)[C@H](Cc2cccs2)NC(=O)[C@@H](N)CSSC[C@@H](C(=O)N2CCC[C@H]2C(=O)N[C@@H](CCCN)C(=O)NCC(N)=O)NC(=O)[C@H](CC(N)=O)NC(=O)[C@H](CC(N)=O)NC1=O [Compound 33] (H-C[2Thi]INNCP[Orn]G-NH2; disulfide 1-6; N-terminus and C-terminus assumed) | + (selective hV1a receptor agonist; EC50 hOT/hV1a ratio not determined due to very low agonist efficacy (<30% compared to AVP) at the hOT receptor) |  |  |  |
|  | CC[C@H](C)[C@@H]1NC(=O)[C@H](Cc2ccccn2)NC(=O)[C@@H](N)CSSC[C@@H](C(=O)N2CCC[C@H]2C(=O)N[C@@H](CCN)C(=O)NCC(N)=O)NC(=O)[C@H](CC(N)=O)NC(=O)[C@H](CCC(N)=O)NC1=O [Compound 17] (H-C[2Pal]IQNCP[Dab]G-NH2; disulfide 1-6) |  |  | 30.3 nM | + (key: +: selective hV1a receptor agonist; EC50 hOT/hV1a ratio not determined due to very low agonist efficacy (<30% compared to AVP) at the hOT receptor) |
| 3.91 nM | CC[C@H](C)[C@@H]1NC(=O)[C@H](Cc2ccccc2)NC(=O)[C@@H](N)CSSC[C@@H](C(=O)N2CCC[C@H]2C(=O)N[C@@H](CCN)C(=O)NCC(N)=O)NC(=O)[C@H](CC(N)=O)NC(=O)[C@H](CC(=O)NC)NC1=O [Compound 31] (H-CFID(NHMe)NCP[Dab]G-NH2; disulfide 1-6; N-terminus and C-terminus assumed) | + (selective hV1a receptor agonist; EC50 hOT/hV1a ratio not determined due to very low agonist efficacy (<30% compared to AVP) at the hOT receptor) |  |  |  |
| 18.8 nM | CC[C@H](C)[C@@H]1NC(=O)[C@H](Cc2cscn2)NC(=O)[C@@H](N)CSSC[C@@H](C(=O)N2CCC[C@H]2C(=O)N[C@@H](CCN)C(=O)NCC(N)=O)NC(=O)[C@H](CC(N)=O)NC(=O)[C@H](CCC(N)=O)NC1=O [Compound 13] (H-C[Ala(4-thiazolyl)]IQNCP[Dab]G-NH2; disulfide 1-6; N-terminus and C-terminus assumed) | + (selective hV1a receptor agonist; EC50 hOT/hV1a ratio not determined due to very low agonist efficacy (<30% compared to AVP) at the hOT receptor) |  |  |  |
| 4.09 nM | CC[C@H](C)[C@@H]1NC(=O)[C@H](Cc2ccccc2)NC(=O)[C@@H](N)CSSC[C@@H](C(=O)N2CCC[C@H]2C(=O)N[C@@H](CCCN)C(=O)NCC(N)=O)NC(=O)[C@H](CC(N)=O)NC(=O)[C@H](CC(=O)NO)NC1=O [Compound 24] (H-CFID(NHOH)NCP[Orn]G-NH2; disulfide 1-6; N-terminus and C-terminus assumed) | + (selective hV1a receptor agonist; EC50 hOT/hV1a ratio not determined due to very low agonist efficacy (<30% compared to AVP) at the hOT receptor) |  |  |  |
| 29.9 nM | CC[C@H](C)[C@@H]1NC(=O)[C@H](Cc2cccnc2)NC(=O)[C@@H](N)CSSC[C@@H](C(=O)N2CCC[C@H]2C(=O)N[C@@H](CCN)C(=O)NCC(N)=O)NC(=O)[C@H](CC(N)=O)NC(=O)[C@H](CCC(N)=O)NC1=O [Compound 18] (H-C[3Pal]IQNCP[Dab]G-NH2; disulfide 1-6; N-terminus and C-terminus assumed) | + (selective hV1a receptor agonist; EC50 hOT/hV1a ratio not determined due to very low agonist efficacy (<30% compared to AVP) at the hOT receptor) |  |  |  |
| 13.7 nM | CC[C@H](C)[C@@H]1NC(=O)[C@H](Cc2cccs2)NC(=O)[C@@H](N)CSSC[C@@H](C(=O)N2CCC[C@H]2C(=O)N[C@@H](CCCNC(C)C)C(=O)NCC(N)=O)NC(=O)[C@H](CC(N)=O)NC(=O)[C@H](CC(N)=O)NC1=O [Compound 43] (H-C[2Thi]INNCP[Orn(iPr)]G-NH2; disulfide 1-6; N-terminus and C-terminus assumed) | + (selective hV1a receptor agonist; EC50 hOT/hV1a ratio not determined due to very low agonist efficacy (<30% compared to AVP) at the hOT receptor) |  |  |  |
| 3.58 nM | CC[C@H](C)[C@@H]1NC(=O)[C@H](Cc2ccccc2)NC(=O)[C@@H](N)CSSC[C@@H](C(=O)N2CCC[C@H]2C(=O)N[C@@H](CCCN)C(=O)NCC(N)=O)NC(=O)[C@H](CC(N)=O)NC(=O)[C@H](CC(=O)NC)NC1=O [Compound 49] (H-CFID(NHMe)NCP[Orn]G-NH2; disulfide 1-6; N-terminus and C-terminus assumed) | + (selective hV1a receptor agonist; EC50 hOT/hV1a ratio not determined due to very low agonist efficacy (<30% compared to AVP) at the hOT receptor) |  |  |  |
| 4.77 nM | CC[C@H](C)[C@@H]1NC(=O)[C@H](Cc2ccccc2)NC(=O)[C@@H](N)CSSC[C@@H](C(=O)N2CCC[C@H]2C(=O)N[C@@H](CCCN)C(=O)NCC(N)=O)NC(=O)[C@H](CC(N)=O)NC(=O)[C@H](CC(=O)NCCOCCO)NC1=O [Compound 29] (H-CFID(X4)NCP[Orn]G-NH2; disulfide 1-6; N-terminus and C-terminus assumed) | + (selective hV1a receptor agonist; EC50 hOT/hV1a ratio not determined due to very low agonist efficacy (<30% compared to AVP) at the hOT receptor) |  |  |  |

| SMILES | EC50 [1, 3] | selectivity hOT/hV1a [2, 4] | selectivity hOT/hV1a ([2]; EC50 ratio) | EC50 [1] | selectivity hOT/hV1a [2] |
| --- | --- | --- | --- | --- | --- |
| CC[C@H](C)[C@@H]1NC(=O)[C@H](Cc2ccccc2)NC(=O)[C@@H](N)CSSC[C@@H](C(=O)N2CCC[C@H]2C(=O)N[C@@H](CCN)C(=O)NCC(N)=O)NC(=O)[C@H](CC(N)=O)NC(=O)[C@H](CCC(N)=O)NC1=O [Compound 8] (H-CFIQNCP[Dab]G-NH2; disulfide 1-6; N-terminus and C-terminus assumed) | 0.5 nM |  | 11 |  |  |
